The assay concerns the target Cezanne 1 (Homo sapiens (Human), UniProt Q6GQQ9). Kind of assay: Cezanne 1 biochemical IC50 assay (fluorescence polarisation, TAMRA labelled peptide linked to ubiquitin). The method, then:
The Cezanne 1 construct was PCR amplified and cloned into a pFLAG-CMV-6c vector (Sigma-Aldrich) with an N-terminal FLAG tag. HEK293T cells were transfected with FLAG-Cezanne 1 using TransIT-LT1 transfection reagent (Mirus) according to the manufacturer's instructions. Cells were harvested 48 hours after transfection. […] The resin was washed two times with low salt buffer and one time with high salt buffer (20 mM Tris, pH 7.5, 500 mM NaCl, 0.5 mM EDTA, 5 mM beta-mercaptoethanol, protease inhibitors (complete mini, Roche) and phosphatase inhibitors (PhosSTOP mini, Roche). To elute the bound Cezanne 1, elution buffer (10 mM Tris, pH 7.5, 150 mM NaCl, 0.5 mM EDTA, 10% glycerol, 0.5% NP40, 5 mM beta-mercaptoethanol, 0.15 mg/ml 3× FLAG peptide (Sigma-Aldrich)) was added to the resin and incubated at 4° C. for 2.5 hours while rotating. The resin was centrifuged at 4000 rpm for 30 seconds, and the supernatant containing purified FLAG-Cezanne 1 was removed and stored at −80° C. […] Dilution plates were prepared at 21 times the final concentration (2100 μM for a final concentration of 100 μM) in 50% DMSO in a 96-well polypropylene V-bottom plate (Greiner #651201). […] Reactions were performed in duplicate in black 384 well plates (small volume, Greiner 784076) in a final reaction volume of 21 μl. Either 1 μl of 50% DMSO or diluted compound was added to the plate. Cezanne 1 was diluted in reaction buffer (40 mM Tris, pH 7.5, 0.005% Tween 20, 0.5 mg/ml BSA, 5 mM—beta-mercaptoethanol) to the equivalent of 0.005 μl/well and 10 μl of diluted Cezanne 1 was added to the compound. Enzyme and compound were incubated for 30 min at room temp. Reactions were initiated by the addition of 50 nM of TAMRA labelled peptide linked to ubiquitin via an iso-peptide bond as fluorescence polarisation substrate. Reactions were read immediately after addition of substrate and following a 2 hr incubation at room temperature. Readings were performed on a Pherastar Plus (BMG Labtech). λ Excitation 540 nm; λ Emission 590 nm.
In general terms: Polarisation of emitted light reports the rotation of a fluorescent probe.

The mark [1] stands for this setting: Cezanne 1 biochemical IC50 assay, 30 min pre-incubation, read after 2 hr at room temperature, read-out: IC50 range.

The structures appear in SMILES notation. Read-outs that look alike come from different tables or passages of the source. A value given as a limit tells only on which side of the number the result lay.

Cezanne 1, sequence (Q6GQQ9 whole entry): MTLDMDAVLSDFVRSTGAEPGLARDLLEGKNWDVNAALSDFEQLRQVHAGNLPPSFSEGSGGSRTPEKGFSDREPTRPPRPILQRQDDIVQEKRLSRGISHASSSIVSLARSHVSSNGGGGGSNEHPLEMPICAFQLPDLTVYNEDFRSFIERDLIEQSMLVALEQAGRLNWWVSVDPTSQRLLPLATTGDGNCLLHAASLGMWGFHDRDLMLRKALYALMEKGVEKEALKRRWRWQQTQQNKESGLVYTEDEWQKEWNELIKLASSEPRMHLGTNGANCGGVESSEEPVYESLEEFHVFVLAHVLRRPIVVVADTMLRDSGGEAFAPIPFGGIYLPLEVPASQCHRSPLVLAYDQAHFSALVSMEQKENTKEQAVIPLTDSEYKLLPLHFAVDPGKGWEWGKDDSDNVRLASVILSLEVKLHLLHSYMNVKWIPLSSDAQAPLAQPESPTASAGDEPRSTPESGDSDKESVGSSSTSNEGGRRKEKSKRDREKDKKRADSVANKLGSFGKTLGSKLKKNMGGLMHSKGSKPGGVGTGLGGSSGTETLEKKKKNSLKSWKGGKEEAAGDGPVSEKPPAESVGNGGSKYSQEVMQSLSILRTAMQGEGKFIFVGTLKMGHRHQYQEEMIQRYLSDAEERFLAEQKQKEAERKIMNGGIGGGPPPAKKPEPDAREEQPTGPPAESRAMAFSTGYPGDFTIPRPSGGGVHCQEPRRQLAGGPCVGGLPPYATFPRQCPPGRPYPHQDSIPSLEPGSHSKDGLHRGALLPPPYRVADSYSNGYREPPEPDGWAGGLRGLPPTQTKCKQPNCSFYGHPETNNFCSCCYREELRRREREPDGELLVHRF

Take `CC1CC2(CCN(C#N)C2)C(=O)N1` (single isomer, unassigned) [Example 82, 8-Methyl-6-oxo-2,7-diazaspiro[4.4]nonane-2-carbonitrile]: the IC50 (as a rule, the concentration that inhibits the measured activity by half) under setting [1] was greater than 10000 nM.
On the same count and under the same terms, the value for `CC1CC2(CCN(C#N)C2)C(=O)N1` (single isomer, unassigned) [Example 83, 8-Methyl-6-oxo-2,7-diazaspiro[4.4]nonane-2-carbonitrile] was greater than 10000 nM.
As to `N#CN1CCC2(CC(c3ccccc3)NC2=O)C1` (single isomer, unassigned) [Example 84, 6-Oxo-8-phenyl-2,7-diazaspiro[4.4]nonane-2-carbonitrile], under setting [1], the IC50 was greater than 10000 nM.
Regarding `N#CN1CCC2(Cc3ccccc3NC2=O)C1` (stereo not drawn) [Example 1, 2′-Oxo-1′,4′-dihydro-2′H-spiro[pyrrolidine-3,3′-quinoline]-1-carbonitrile], the concentration for half-maximal inhibition (IC50) under setting [1] was 1000 to 10000 nM.
Consider `N#CN1CCC2(Cc3ccc(Cl)cc3NC2=O)C1` (stereo not drawn) [Example 2, 7′-Chloro-2′-oxo-1′,4′-dihydro-2′H-spiro[pyrrolidine-3,3′-quinoline]-1-carbonitrile], for which the IC50 lay in the range of 1000 to 10000 nM.
Consider `COc1ccc2c(c1)NC(=O)C1(CCN(C#N)C1)C2` (stereo not drawn) [Example 3, 7′-Methoxy-2′-oxo-1′,4′-dihydro-2′H-spiro[pyrrolidine-3,3′-quinoline]-1-carbonitrile], for which the IC50 lay within 1000 to 10000 nM.
In the case of `N#CN1CCC2(Cc3ccc(-c4ccccc4)cc3NC2=O)C1` (stereo not drawn) [Example 4, 2′-Oxo-7′-phenyl-1′,4′-dihydro-2′H-spiro[pyrrolidine-3,3′-quinoline]-1-carbonitrile], the IC50 under setting [1] fell in the range of 1000 to 10000 nM.
For `COc1ccc(C(C)C)cc1-c1ccc2c(c1)NC(=O)C1(CCN(C#N)C1)C2` (stereo not drawn) [Example 5, 7′-(5-Isopropyl-2-methoxyphenyl)-2′-oxo-1′,4′-dihydro-2′H-spiro[pyrrolidine-3,3′-quinoline]-1-carbonitrile], under setting [1], the IC50 lay within 1000 to 10000 nM.
For the compound `N#CN1CCC2(Cc3ccc(-c4ccc(-c5ccccc5)cc4)cc3NC2=O)C1` (stereo not drawn) [Example 6, 7′-([1,1′-Biphenyl]-4-yl)-2′-oxo-1′,4′-dihydro-2′H-spiro[pyrrolidine-3,3′-quinoline]-1-carbonitrile], the IC50 fell in the range of 1000 to 10000 nM.
For `N#CN1CCC2(Cc3ccc(-c4ccc(Oc5ccccc5)cc4)cc3NC2=O)C1` (stereo not drawn) [Example 11, 2′-Oxo-7′-(4-phenoxyphenyl)-1′,4′-dihydro-2′H-spiro[pyrrolidine-3,3′-quinoline]-1-carbonitrile], the 50% inhibitory concentration (IC50) under setting [1] was 1000 to 10000 nM.
As for `Cn1cc(-c2ccc3c(c2)NC(=O)C2(CCN(C#N)C2)C3)cn1` (stereo not drawn) [Example 12, 7′-(1-Methyl-1H-pyrazol-4-yl)-2′-oxo-1′,4′-dihydro-2′H-spiro[pyrrolidine-3,3′-quinoline]-1-carbonitrile], the IC50 under setting [1] fell in the range of 1000 to 10000 nM.
Same read-out and setting: with `N#Cc1ccc(-c2ccc3c(c2)NC(=O)C2(CCN(C#N)C2)C3)cc1` (stereo not drawn) [Example 13, 7′-(4-Cyanophenyl)-2′-oxo-1′,4′-dihydro-2′H-spiro[pyrrolidine-3,3′-quinoline]-1-carbonitrile] the figure was 1000 to 10000 nM; with `N#CN1CCC2(Cc3ccc(-c4cc(OC(F)(F)F)ccc4Cl)cc3NC2=O)C1` (stereo not drawn) [Example 14, 7′-(2-Chloro-5-(trifluoromethoxy)phenyl)-2′-oxo-1′,4′-dihydro-2′H-spiro[pyrrolidine-3,3′-quinoline]-1-carbonitrile], 1000 to 10000 nM; with `CNC(=O)c1ccc(-c2ccc3c(c2)NC(=O)C2(CCN(C#N)C2)C3)cn1` (stereo not drawn) [Example 15, 5-(1-Cyano-2′-oxo-1′,4′-dihydro-2′H-spiro[pyrrolidine-3,3′-quinolin]-7′-yl)-N-methylpicolinamide], 1000 to 10000 nM.
Consider `CNC(=O)c1ccc(-c2ccc3c(c2)NC(=O)C2(CCN(C#N)C2)C3)cc1` (stereo not drawn) [Example 17, 4-(1-Cyano-2′-oxo-1′,4′-dihydro-2′H-spiro[pyrrolidine-3,3′-quinolin]-7′-yl)-N-methylbenzamide], for which the IC50 under setting [1] lay within 1000 to 10000 nM.
As for `CN1CCN(c2ccc(-c3ccc4c(c3)NC(=O)C3(CCN(C#N)C3)C4)cc2)CC1` (stereo not drawn) [Example 19, 7′-(4-(4-Methylpiperazin-1-yl)phenyl)-2′-oxo-1′,4′-dihydro-2′H-spiro[pyrrolidine-3,3′-quinoline]-1-carbonitrile], the IC50 under setting [1] is 100 to 1000 nM.
Still for that read-out and setting: with `CC(C)Oc1ccc(F)cc1-c1ccc2c(c1)NC(=O)C1(CCN(C#N)C1)C2` (stereo not drawn) [Example 21, 7′-(5-Fluoro-2-isopropoxyphenyl)-2′-oxo-1′,4′-dihydro-2′H-spiro[pyrrolidine-3,3′-quinoline]-1-carbonitrile] the figure was 100 to 1000 nM; with `CN1CCN(C(=O)c2ccc(-c3ccc4c(c3)NC(=O)C3(CCN(C#N)C3)C4)cc2)CC1` (stereo not drawn) [Example 23, 7′-(4-(4-Methylpiperazine-1-carbonyl)phenyl)-2′-oxo-1′,4′-dihydro-2′H-spiro[pyrrolidine-3,3′-quinoline]-1-carbonitrile], 100 to 1000 nM; with `Cn1ncc2cc(-c3ccc4c(c3)NC(=O)C3(CCN(C#N)C3)C4)ccc21` (stereo not drawn) [Example 24, 7′-(1-Methyl-1H-indazol-5-yl)-2′-oxo-1′,4′-dihydro-2′H-spiro[pyrrolidine-3,3′-quinoline]-1-carbonitrile], less than 100 nM.
For `Cc1ccc2[nH]ncc2c1-c1ccc2c(c1)NC(=O)C1(CCN(C#N)C1)C2` (stereo not drawn) [Example 25, 7′-(5-Methyl-1H-indazol-4-yl)-2′-oxo-1′,4′-dihydro-2′H-spiro[pyrrolidine-3,3′-quinoline]-1-carbonitrile], the IC50 under setting [1] was in the range of 100 to 1000 nM.
Consider `N#CN1CCC2(Cc3ccc(-c4cccc(NS(=O)(=O)C5CC5)c4)cc3NC2=O)C1` (stereo not drawn) [Example 26, N-(3-(1-Cyano-2′-oxo-1′,4′-dihydro-2′H-spiro[pyrrolidine-3,3′-quinolin]-7′-yl)phenyl)cyclopropanesulfonamide], for which, under setting [1], the IC50 lay within 100 to 1000 nM.
Turning to `Cc1n[nH]cc1-c1ccc2c(c1)NC(=O)C1(CCN(C#N)C1)C2` (stereo not drawn) [Example 27, 7′-(3-Methyl-1H-pyrazol-4-yl)-2′-oxo-1′,4′-dihydro-2′H-spiro[pyrrolidine-3,3′-quinoline]-1-carbonitrile], under setting [1], the IC50 fell in the range of 1000 to 10000 nM.
In the case of `N#CN1CCC2(Cc3ccc(-c4cncnc4)cc3NC2=O)C1` (stereo not drawn) [Example 28, 2′-Oxo-7′-(pyrimidin-5-yl)-1′,4′-dihydro-2′H-spiro[pyrrolidine-3,3′-quinoline]-1-carbonitrile], the IC50 under setting [1] fell in the range of 100 to 1000 nM.
With `CC(=O)Nc1cccc(-c2ccc3c(c2)NC(=O)C2(CCN(C#N)C2)C3)c1` (stereo not drawn) [Example 29, N-(3-(1-Cyano-2′-oxo-1′,4′-dihydro-2′H-spiro[pyrrolidine-3,3′-quinolin]-7′-yl)phenyl)acetamide], the IC50 under setting [1] was in the range of 1000 to 10000 nM.
On to `CN(C)C(=O)c1cccc(-c2ccc3c(c2)NC(=O)C2(CCN(C#N)C2)C3)c1` (stereo not drawn) [Example 30, 3-(1-Cyano-2′-oxo-1′,4′-dihydro-2′H-spiro[pyrrolidine-3,3′-quinolin]-7′-yl)-N,N-dimethylbenzamide], for which, under setting [1], the IC50 lay in the range of 100 to 1000 nM.
Still for that read-out and setting: with `CC(=O)Nc1ccc(-c2ccc3c(c2)NC(=O)C2(CCN(C#N)C2)C3)cc1` (stereo not drawn) [Example 31, N-(4-(1-Cyano-2′-oxo-1′,4′-dihydro-2′H-spiro[pyrrolidine-3,3′-quinolin]-7′-yl)phenyl)acetamide] the figure was 1000 to 10000 nM.
Turning to `N#CN1CCC2(Cc3ccc(-c4ccc(S(=O)(=O)N5CCOCC5)cc4)cc3NC2=O)C1` (stereo not drawn) [Example 32, 7′-(4-(Morpholinosulfonyl)phenyl)-2′-oxo-1′,4′-dihydro-2′H-spiro[pyrrolidine-3,3′-quinoline]-1-carbonitrile], the IC50 under setting [1] lay within 1000 to 10000 nM.

For the origin of these results see patent US10654853B2, “Spiro-condensed pyrrolidine derivatives as deubiquitylating enzymes (DUB) inhibitors” (MISSION THERAPEUTICS LIMITED, priority 2016, dated 2020).
